Converted amounts (≈) assume the structure as drawn.
Tested on: MCF-7 (Human breast cancer)
Test: MTT test on MCF-7 cells
Type: cell-based
Settings: MCF7, till 48 h
Description: The in vitro anticancer activities of the synthesized compounds were conducted using different cancerous and non-cancerous cell lines viz B16-F0 (Mouse melanoma), mouse Ehrlich Ascites Carcinoma (EAC), MCF-7 (Human breast cancer), MCF-10A (Human breast epithelial cells), and NIH/3T3 (Mouse fibroblast cells). All cell lines were procured from the National Centre for Cell Science, Pune, India. The procured cells were cultured in a six-well culture plate with Dulbecco’s Modified Eagle’s Medium (DMEM) supplemented with 10% fetal bovine serum in a humid CO2 incubator with 5% carbon dioxide at 37 °C.
The anti-cancer effect and cytotoxicity of both 3-MBTSc and 4-NBTSc compounds were evaluated against different cancerous (MCF-7, EAC, B16-F0 cells) and noncancerous cells (MCF-10A, NIH-3T3 cells) using MTT test. In brief, the stock solutions of both the tested compounds were prepared by dissolving 1 mg of each compound in 1 mL of DMSO separately. Then, four different concentrations (5, 10, 12, and 20 µg/mL) of both compounds were used during the test along with the negative control. Also, 10 μg/mL of doxorubicin (Dox) was used as the positive control during the experiment. Both untreated and treated cells were incubated for next 24 and 48 h. Then, all the steps during the whole experiment were carried out by our earlier reported procedure. Later, the absorbance values were measured by an ELISA reader (Biorad, Hercules, CA, USA) at 570 nm wavelength using secondary wavelength as a reference at 620 nm and the percentages of cell viability was calculated using the following formula [59, 60, 61]. Cell viability (%)= Mean absorbance of treated cells/Mean absorbance of untreated cells × 100
Based on the cell viability data, the IC50 values of both compounds were calculated on different cancer cells by plotting their corresponding dose-responsive graphs.
The obtained data were statistically analyzed. The descriptive analysis was done and the IC50 values were calculated by fitting the sigmoidal dose responsive graph using GraphPad Prism (GraphPad Software, Inc., La Jolla, CA, USA). […]

## COc1cccc2c1C(=O)c1c(O)c3c(c(O)c1C2=O)C[C@@](O)(C(=O)CO)C[C@@H]3O[C@H]1C[C@H](N)[C@H](O)[C@H](C)O1 [DOX, doxorubicin, reference compound]
  IC50: 3.162 ± 0.018 µg/mL (≈ 5.82 µM)

Reference: paper PMC8533299, “Synthesis, In Silico Study, and Anti-Cancer Activity of Thiosemicarbazone Derivatives” (Biomedicines, 2021)
